Measurements reported in US9512114B2, “Substituted aminopyrimidine compounds and methods of use” (Calitor Sciences, LLC, priority 2013, dated 2016).

Experiments:
[1] = target: PI3K (p110δ/p85α) (h) (Homo sapiens (Human), UniProt O00329); assay: PI3K (p110δ/p85α) (h) non-radioactive HTRF kinase assay; type: biochemical; details: performed at Millipore UK Ltd
Experimental: The above assay procedure can be used to determine the IC50 for inhibition and/or the inhibition constant, Ki.
PI3K (p110δ/p85α) (h) [Non-Radioactive Assay]
PI3K (p110δ/p85α) (h) is incubated in assay buffer containing 10 μM phosphatidylinositol-4, 5-bisphosphate and MgATP (concentration as required). The reaction is initiated by the addition of the MgATP mix. After incubation for 30 minutes at room temperature, the reaction is stopped by the addition of stop solution containing EDTA and biotinylated phosphatidylinositol-3,4,5-trisphosphate. Finally, detection buffer is added, which contains europium-labelled anti-GST monoclonal antibody, GST-tagged GRP1 PH domain and streptavidin-allophycocyanin. The plate is then read in timeresolved fluorescence mode and the homogenous time-resolved fluorescence (HTRF) signal is determined according to the formula HTRF=10000×(Em665 nm/Em620 nm).
The kinase assays described herein were performed at Millipore UK Ltd, Dundee Technology Park, Dundee DD2 1SW, UK.

[2] = Compound stability in rat liver microsomes; type: in vitro ADME; details: pH 7.4; for CLint scaled at 5 μM: liver microsomes, in vivo CLint extrapolated from rat liver microsome incubation; for half-life at 5 μM: rat liver microsomes 0.5 mg protein/mL, compound 5 μM, NADPH 1.0 mM, 37° C., read-out: Rat T1/2
Experimental: (§1) The LC/MS/MS system used in the analysis consists of an Agilent 1200 Series vacuum degasser, binary pump, well-plate autosampler, thermostatted column compartment, the Agilent G6430 Triple Quadrupole Mass Spectrometer with an electrosprayionization (ESI) source. Quantitative analysis was carried out using MRM mode. The parameters for MRM transitions are in the Table A.
(§2) An Agilent XDB-C18, 2.1×30 mm, […] column was used for the analysis. 5 μL of the samples were injected. Analysis condition: The mobile phase was 0.1% formic acid in water (A) and 0.1% formic acid in methanol (B). The flow rate was 0.4 mL/min. And the gradient of Mobile phase was in the Table B.
(§3) Alternatively, an Agilent 6330 series LC/MS/MS spectrometer equipped with G1312A binary pumps, a G1367A autosampler and a G1314C UV detector were used in the analysis. An ESI source was used on the LC/MS/MS spectrometer. The analysis was done in positive ion mode as appropriate and the MRM transition for each analyte was optimized using standard solution. A Capcell MP-C18 100×4.6 mm I.D., […] column (Phenomenex, Torrance, Calif., USA) was used during the analysis. The mobile phase was 5 mM ammonia acetate, 0.1% MeOH in water (A): 5 mM ammonia acetate, 0.1% MeOH in acetonitrile (B) (70:30, v/v). The flow rate was 0.6 mL/min. Column was maintained at ambient temperature. 20 μL of the samples were injected.
(§4) Human or rat liver microsomes incubations were conducted in duplicate in polypropylene tubes. The typical incubation mixtures consisted of human or rat liver microsomes (0.5 mg protein/mL), compounds of interest (5 μM) and NADPH (1.0 mM) in a total volume of 200 μL potassium phosphate buffer (PBS, 100 mM, pH 7.4). Compounds were dissolved in DMSO and diluted with PBS such that the final concentration of DMSO was 0.05%. The enzymatic reactions were commenced with the addition of protein after a 3-min preincubation and incubated in a water bath open to the air at 37° C. Reactions were terminated at various time points (0, 5, 10, 15, 30, 60 min) by adding equal volume of ice-cold acetonitrile. The samples were stored at −80° C. until LC/MS/MS assays.
(§5) The concentrations of compounds in the incubation mixtures of human or rat liver microsomes were determined by a LC/MS/MS method. The ranges of the linearity in the concentration range were determined for each tested compounds.
(§6) A parallel incubation was performed using denatured microsomes as the negative control, and reactions were terminated at various time points (0, 15, 60 min) after incubation at 37° C.
(§7) Dextromethorphan (70 μM) was selected as the positive control, and reactions were terminated at various time points (0, 5, 10, 15, 30, 60 min) after incubation at 37° C. Both positive and negative control samples were included in each assay to ensure the integrity of the microsomal incubation system.
(§8) The concentrations of compounds in human or rat liver microsome incubations were plotted as a percentage of the relevant zero time point control for each reaction. The in vivo CLint were extrapolated (ref.: Naritomi, Y.; Terashita, S.; Kimura, S.; Suzuki, A.; Kagayama, A.; and Sugiyama, Y.; Prediction of human hepatic clearance from in vivo animal experiments and in vitro metabolic studies with liver microsomes from animals and humans. Drug Metab. Dispos., 2001, 29: 1316-1324).

[3] = Pharmacokinetic profiles in rats; type: in vivo, rat; details: for Cl/F / AUC(0-t) / half-life / Vd: iv dosing 1 mg/kg; for F: oral vs iv (iv 1 mg/kg; p.o. generally 5 or 10 mg/kg); for AUC(0-t) / half-life / Vd: rat, plasma; for Vd: read-out: Vss
Experimental: The compounds disclosed herein are assessed in pharmacokinetic studies in mice, rats, dogs or monkeys. The compounds are administered as a water solution, 2% HPMC+1% TWEEN®80 in water solution, 5% DMSO+5% solutol in saline, 4% MC suspension or capsule. For the intravenous administration, the animals are generally given at 1 or 2 mg/kg dose. For the oral (p.o.) dosing, mice and rats are generally given 5 or 10 mg/kg dose, and dogs and monkeys are generally given 10 mg/kg dose. The blood samples (0.3 mL) are drawn at 0.25, 0.5, 1.0, 2.0, 3.0, 4.0, 6.0, 8.0, 12 and 24 h time points or 0.083, 0.25, 0.5, 1.0, 2.0, 4.0, 6.0, 8.0 and 24 h time points and centrifuged at 3,000 or 4000 rpm for 2 to 10 min. The plasma solutions are collected, stored at −20° C. or −70° C. until analyzed by LC/MS/MS as described above.

[4] = Compound stability in human liver microsomes; type: in vitro ADME; details: pH 7.4; for CLint scaled at 5 μM: liver microsomes, in vivo CLint extrapolated from human liver microsome incubation; for half-life at 5 μM: human liver microsomes 0.5 mg protein/mL, compound 5 μM, NADPH 1.0 mM, 37° C., read-out: Human T1/2
Experimental: as §1, §2, §3, §4, §5, §6, §7, §8

PI3K (p110δ/p85α) (h), sequence (O00329 whole entry): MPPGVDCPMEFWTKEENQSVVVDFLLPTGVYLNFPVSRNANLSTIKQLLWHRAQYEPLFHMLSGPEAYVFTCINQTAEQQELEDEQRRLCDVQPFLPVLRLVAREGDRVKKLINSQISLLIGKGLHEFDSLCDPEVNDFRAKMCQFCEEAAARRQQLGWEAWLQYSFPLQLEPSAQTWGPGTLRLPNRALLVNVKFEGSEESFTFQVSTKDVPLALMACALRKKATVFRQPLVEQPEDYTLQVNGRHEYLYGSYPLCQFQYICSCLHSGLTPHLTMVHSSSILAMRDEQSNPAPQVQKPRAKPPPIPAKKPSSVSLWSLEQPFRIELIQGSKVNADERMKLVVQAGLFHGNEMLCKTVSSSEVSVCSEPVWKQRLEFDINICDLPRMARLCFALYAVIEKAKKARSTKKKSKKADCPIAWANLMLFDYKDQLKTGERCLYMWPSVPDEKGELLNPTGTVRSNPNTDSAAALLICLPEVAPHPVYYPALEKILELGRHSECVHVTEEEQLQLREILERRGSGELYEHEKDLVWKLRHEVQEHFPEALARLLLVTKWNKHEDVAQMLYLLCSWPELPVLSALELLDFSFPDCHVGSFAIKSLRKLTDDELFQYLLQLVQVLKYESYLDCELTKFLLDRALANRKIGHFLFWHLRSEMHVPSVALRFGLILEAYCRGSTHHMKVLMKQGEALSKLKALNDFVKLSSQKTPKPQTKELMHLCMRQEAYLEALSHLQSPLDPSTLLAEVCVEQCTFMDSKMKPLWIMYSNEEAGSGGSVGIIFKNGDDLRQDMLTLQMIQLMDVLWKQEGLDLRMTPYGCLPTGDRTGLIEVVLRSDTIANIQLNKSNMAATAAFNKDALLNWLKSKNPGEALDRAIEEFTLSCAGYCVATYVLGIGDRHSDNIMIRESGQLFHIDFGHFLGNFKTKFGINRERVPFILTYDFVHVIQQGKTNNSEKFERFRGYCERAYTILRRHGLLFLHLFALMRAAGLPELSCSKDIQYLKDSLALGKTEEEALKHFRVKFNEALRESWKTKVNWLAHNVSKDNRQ
PI3K (p110δ/p85α) (h), sequence (P27986 whole entry partner): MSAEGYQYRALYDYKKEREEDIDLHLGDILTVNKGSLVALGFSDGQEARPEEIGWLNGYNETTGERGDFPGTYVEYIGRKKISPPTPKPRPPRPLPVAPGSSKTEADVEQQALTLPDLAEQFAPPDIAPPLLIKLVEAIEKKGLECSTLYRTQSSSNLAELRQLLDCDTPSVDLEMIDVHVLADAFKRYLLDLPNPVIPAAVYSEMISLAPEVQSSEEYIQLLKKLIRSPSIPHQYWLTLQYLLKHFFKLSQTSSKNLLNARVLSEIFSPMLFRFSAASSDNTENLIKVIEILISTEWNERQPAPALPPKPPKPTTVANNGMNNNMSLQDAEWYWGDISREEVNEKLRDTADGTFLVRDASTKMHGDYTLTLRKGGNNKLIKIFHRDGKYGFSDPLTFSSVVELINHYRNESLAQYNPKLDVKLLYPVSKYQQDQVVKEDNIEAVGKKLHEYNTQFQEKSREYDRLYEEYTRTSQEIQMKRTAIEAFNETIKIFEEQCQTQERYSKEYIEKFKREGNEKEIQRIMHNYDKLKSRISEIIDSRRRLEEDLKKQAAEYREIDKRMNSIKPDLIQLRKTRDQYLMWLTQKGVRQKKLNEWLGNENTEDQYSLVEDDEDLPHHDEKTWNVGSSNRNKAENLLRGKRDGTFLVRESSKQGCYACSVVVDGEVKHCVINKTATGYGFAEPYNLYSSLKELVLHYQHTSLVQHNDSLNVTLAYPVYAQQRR

An IC50 [1] of 4 nM, a CLint scaled at 5 μM [2] of 250 mL/min/kg and a half-life at 5 μM [2] of 9.92 min were found for CC[C@H](Nc1ncnc(N)c1-c1nc(C)no1)c1cc2cccc(Cl)c2c(=O)n1C1CC1 [Ex. 7, (S)-3-(1-((6-amino-5-(3-methyl-1,2,4-oxadiazol-5-yl)pyrimidin-4-yl)amino)propyl)-8-chloro-2-ccyclopropylisoquinolin-1(2H)-one] in this work. It also gave a Cl/F [3] of 54.3 mL/min/kg, an F [3] of 42.95% and an AUC(0-t) [3] of 307 ng·h/mL. The half-life [3] was 138 min, the Vd [3] was 7.96 L/kg and the CLint scaled at 5 μM [4] was 147 mL/min/kg. The half-life at 5 μM [4] was 11.8 min.
An IC50 [1] of 2 nM, a CLint scaled at 5 μM [2] of 418 mL/min/kg and a half-life at 5 μM [2] of 5.94 min were found for CC[C@H](Nc1ncnc(N)c1-c1nc(C)no1)c1cc2cccc(C)c2c(=O)n1-c1ccccc1 [Ex. 2, (S)-3-(1-((6-amino-5-(3-methyl-1,2,4-oxadiazol-5-yl)pyrimidin-4-yl)amino)propyl)-8-methyl-2-phenylisoquinolin-1(2H)-one] in this work. The Cl/F [3] was 79 mL/min/kg, the F [3] was 46.57% and the AUC(0-t) [3] was 215 ng·h/mL. The half-life [3] was 69.6 min, the Vd [3] was 4.42 L/kg and the CLint scaled at 5 μM [4] was 840 mL/min/kg. The half-life at 5 μM [4] was 2.07 min.
An IC50 [1] of 190 nM, a CLint scaled at 5 μM [2] of 173 mL/min/kg and a half-life at 5 μM [2] of 14.3 min were found for C[C@H](Nc1ncnc(N)c1-c1ncn(C)n1)c1cc2cccc(Cl)c2c(=O)n1C1CC1 [Ex. 16, (S)-3-(1-((6-amino-5-(1-methyl-1H-1,2,4-triazol-3-yl)pyrimidin-4-yl)amino)ethyl)-8-chloro-2-cyclopropylisoquinolin-1(2H)-one] in this work. It also gave a Cl/F [3] of 89.3 mL/min/kg, an F [3] of 11.44% and an AUC(0-t) [3] of 186 ng·h/mL. For the same compound, the half-life [3] was 36.6 min, the Vd [3] was 2.94 L/kg and the CLint scaled at 5 μM [4] was 219 mL/min/kg. For the same compound, the half-life at 5 μM [4] was 7.92 min.
An IC50 [1] of 12 nM, a Cl/F [3] of 30 mL/min/kg and an F [3] of 32.09% were found for C[C@H](Nc1ncnc(N)c1-c1nnn(C)n1)c1cc2cccc(Cl)c2c(=O)n1C1CC1 [Ex. 12, (S)-3-(1-((6-amino-5-(2-methyl-2H-tetrazol-5-yl)pyrimidin-4-yl)amino)ethyl)-8-chloro-2-cyclopropylisoquinolin-1(2H)-one] in this work. For the same compound, the AUC(0-t) [3] was 555 ng·h/mL, the half-life [3] was 42 min and the Vd [3] was 1.42 L/kg.
An IC50 [1] of 5 nM, a CLint scaled at 5 μM [2] of 219 mL/min/kg and a half-life at 5 μM [2] of 11.3 min were found for CC[C@H](Nc1ncnc(N)c1-c1nc(C)no1)c1cc2cccc(F)c2c(=O)n1C1CC1 [Ex. 1, (S)-3-(1-((6-amino-5-(3-methyl-1,2,4-oxadiazol-5-yl)pyrimidin-4-yl)amino)propyl)-2-cyclopropyl-8-fluoroisoquinolin-1(2H)-one] in this work. It also gave a Cl/F [3] of 93 mL/min/kg, an F [3] of 46.34% and an AUC(0-t) [3] of 178 ng·h/mL. The half-life [3] was 37.8 min, the Vd [3] was 3.99 L/kg and the CLint scaled at 5 μM [4] was 243 mL/min/kg. For the same compound, the half-life at 5 μM [4] was 10.2 min.
An IC50 [1] of 3 nM, a CLint scaled at 5 μM [2] of 259 mL/min/kg and a half-life at 5 μM [2] of 9.58 min were found for CCc1noc(-c2c(N)ncnc2N[C@@H](CC)c2cc3cccc(Cl)c3c(=O)n2C2CC2)n1 [Ex. 22, (S)-3-(1-((6-amino-5-(3-ethyl-1,2,4-oxadiazol-5-yl)pyrimidin-4-yl)amino)propyl)-8-chloro-2-cyclopropylisoquinolin-1(2H)-one] in this work. The Cl/F [3] was 99.8 mL/min/kg, the F [3] was 16.23% and the AUC(0-t) [3] was 167 ng·h/mL. For the same compound, the half-life [3] was 79.2 min, the Vd [3] was 6.07 L/kg and the CLint scaled at 5 μM [4] was 138 mL/min/kg. It also gave a half-life at 5 μM [4] of 12.6 min.
An IC50 [1] of 32 nM, a CLint scaled at 5 μM [2] of 330 mL/min/kg and a half-life at 5 μM [2] of 7.53 min were found for CC[C@H](Nc1ncnc(N)c1-c1noc(C)n1)c1cc2cccc(F)c2c(=O)n1-c1ccccc1 [Ex. 18, (S)-3-(1-((6-amino-5-(5-methyl-1,2,4-oxadiazol-3-yl)pyrimidin-4-yl)amino)propyl)-8-fluoro-2-phenylisoquinolin-1(2H)-one] in this work. It also gave a Cl/F [3] of 51.7 mL/min/kg, an F [3] of 38.15% and an AUC(0-t) [3] of 323 ng·h/mL. For the same compound, the half-life [3] was 46.5 min, the Vd [3] was 1.66 L/kg and the CLint scaled at 5 μM [4] was 226 mL/min/kg. It also gave a half-life at 5 μM [4] of 7.7 min.
A CLint scaled at 5 μM [2] of 137 mL/min/kg, a half-life at 5 μM [2] of 18.2 min and a Cl/F [3] of 36.2 mL/min/kg were found for CC[C@H](Nc1ncnc(N)c1-c1nnn(C)n1)c1cc2cccc(Cl)c2c(=O)n1C1CC1 [Ex. 13, (S)-3-(1-((6-amino-5-(2-methyl-2H-tetrazol-5-yl)pyrimidin-4-yl)amino)propyl)-8-chloro-2-cyclopropylisoquinolin-1(2H)-one] in this work. It also gave an F [3] of 67.9%, an AUC(0-t) [3] of 465 ng·h/mL and a half-life [3] of 99.6 min. It also gave a Vd [3] of 4.42 L/kg, a CLint scaled at 5 μM [4] of 157 mL/min/kg and a half-life at 5 μM [4] of 11.1 min.
A CLint scaled at 5 μM [2] of 99.9 mL/min/kg, a half-life at 5 μM [2] of 24.9 min and a Cl/F [3] of 22.7 mL/min/kg were found for C[C@H](Nc1ncnc(N)c1-c1nnn(C)n1)c1cc2cccc(Cl)c2c(=O)n1-c1ccccc1 [Ex. 15, (S)-3-(1-((6-amino-5-(2-methyl-2H-tetrazol-5-yl)pyrimidin-4-yl)amino)ethyl)-8-chloro-2-phenylisoquinolin-1(2H)-one] in this work. It also gave an F [3] of 48.92%, an AUC(0-t) [3] of 758 ng·h/mL and a half-life [3] of 51.6 min. For the same compound, the Vd [3] was 0.92 L/kg, the CLint scaled at 5 μM [4] was 287 mL/min/kg and the half-life at 5 μM [4] was 6.06 min.
